Test system: chloroquine resistant strain (W2)
Test: activity against chloroquine resistant strain of the malaria parasite
Type: cell-based, Plasmodium falciparum
Conditions: compared with control drug
Source text: 3-[1-(2-pyridyl)ethylidene]hydrazinecarbodithioate have moderate potency against falcipain-2 (FP-2) and falcipain-3 (FP-3) cysteine protease enzymes from the malaria parasite plasmodium falciparum while they portray enormous potency against the chloroquine resistant strain (W2) of the parasite. This patent describes the synthesis, characterization and biological results of metal complexes containing deprotonated 3-[1-(2-pyridyl) ethylidene] hydrazinecarbodithioate ligand (FIG. 1). The metal complex were synthesized and recrystallized. The biological activities (nanomolar) of the metal complex against malaria parasites were tested and tabled as table 2 in FIG. 6 of the drawings. The metal potency was far much greater than the control drug with respect to W-2 . This observation is extremely important as malaria resistance against the chloroquine drug is a great challenge today. This metal complex may act as lead compounds for developing future malaria drugs . […] The potency of cadmium is greatest with respect to W-2 compared to other metals as well as the control drug. The metal complex ZnL(LH)Cl containing the deprotonated dithioester L- have been synthesized and charachterized by elemental analysis, mass spectrometry, proton NMR and Fourier transform IR. The ligand LH undergoes tautomerism which can readily get ionized to generate a deprotonated ligand L-. […]

## [Cd] [cadmium]
  potency against W-2 in words / activity sequence versus control: greatest

— patent publication US20130158267A1, “METHOD OF SYNTHESIZING THE COMPLEX [ZN(NNS)2] ACTIVE AGAINST THE MALARIA PARASITE PLASMODIUM” (priority 2010, published 2013)
